Measurements as given in ChEMBL document CHEMBL2407067, “Pyridone-conjugated monobactam antibiotics with gram-negative activity” (J Med Chem, 2013).
In brackets after ≈: the same amount, converted by molar mass.

How the values were obtained:
[1] = test system: Pseudomonas aeruginosa; experiment: Antibacterial activity against FptA receptor-deficient Pseudomonas aeruginosa PAO1 in Muller-Hinton broth medium by broth microdilution method; format: functional
[2] = test system: Pseudomonas aeruginosa; experiment: Antibacterial activity against Pseudomonas aeruginosa PAO1 in iron-chelated Muller-Hinton broth medium by broth microdilution method; format: functional
[3] = test system: Pseudomonas aeruginosa; experiment: Antibacterial activity against Pseudomonas aeruginosa 1042-06 by broth microdilution method; format: functional
[4] = test system: Pseudomonas aeruginosa; experiment: Antibacterial activity against PiuA receptor-deficient Pseudomonas aeruginosa PAO1 in Muller-Hinton broth medium by broth microdilution method; format: functional
[5] = test system: Pseudomonas aeruginosa; experiment: Antibacterial activity against FptA receptor-deficient Pseudomonas aeruginosa PAO1 in iron-chelated Muller-Hinton broth medium by broth microdilution method; format: functional
[6] = test system: Pseudomonas aeruginosa; experiment: Antibacterial activity against PiuA receptor-deficient Pseudomonas aeruginosa PAO1 in iron-chelated Muller-Hinton broth medium by broth microdilution method; format: functional
[7] = Inhibition of PBP1a in Pseudomonas aeruginosa ATCC 27853 after 20 mins by fluorescence assay
[8] = test system: Pseudomonas aeruginosa; experiment: microbe, parasite or virus in culture; conditions: 1091-05
Description: Antibacterial activity against Pseudomonas aeruginosa 1091-05 by broth microdilution method

[9] = test system: Pseudomonas aeruginosa; experiment: Antibacterial activity against PiuA/PirA receptor-deficient Pseudomonas aeruginosa PAO1 in Muller-Hinton broth medium by broth microdilution method; format: functional
[10] = test system: Pseudomonas aeruginosa; experiment: Antibacterial activity against FpvA receptor-deficient Pseudomonas aeruginosa PAO1 in Muller-Hinton broth medium by broth microdilution method; format: functional
[11] = test system: Pseudomonas aeruginosa; experiment: Ratio of MIC for PiuA/PirA receptor-deficient Pseudomonas aeruginosa PAO1 to MIC for Pseudomonas aeruginosa PAO1 in Muller-Hinton broth medium by broth microdilution method; format: functional
[12] = Inhibition of PBP1b in Pseudomonas aeruginosa ATCC 27853 after 20 mins by fluorescence assay
[13] = test system: Pseudomonas aeruginosa; experiment: Ratio of MIC for PiuA receptor-deficient Pseudomonas aeruginosa PAO1 to MIC for Pseudomonas aeruginosa PAO1 in Muller-Hinton broth medium by broth microdilution method; format: functional
[14] = test system: Pseudomonas aeruginosa; experiment: Antibacterial activity against PirA receptor-deficient Pseudomonas aeruginosa PAO1 in Muller-Hinton broth medium by broth microdilution method; format: functional
[15] = test system: Pseudomonas aeruginosa; experiment: Antibacterial activity against PiuA/FpvA receptor-deficient Pseudomonas aeruginosa PAO1 in Muller-Hinton broth medium by broth microdilution method; format: functional
[16] = test system: Klebsiella pneumoniae; experiment: Antibacterial activity against Klebsiella pneumoniae 1000-02 by broth microdilution method; format: functional
[17] = test system: Pseudomonas aeruginosa; experiment: Antibacterial activity against FpvA receptor-deficient Pseudomonas aeruginosa PAO1 in iron-chelated Muller-Hinton broth medium by broth microdilution method; format: functional
[18] = test system: Pseudomonas aeruginosa; experiment: Antibacterial activity against PirA receptor-deficient Pseudomonas aeruginosa PAO1 in iron-chelated Muller-Hinton broth medium by broth microdilution method; format: functional
[19] = test system: Pseudomonas aeruginosa; experiment: Antibacterial activity against PiuA/FptA receptor-deficient Pseudomonas aeruginosa PAO1 in Muller-Hinton broth medium by broth microdilution method; format: functional
[20] = Inhibition of PBP2 in Pseudomonas aeruginosa ATCC 27853 after 20 mins by fluorescence assay
[21] = test system: Pseudomonas aeruginosa; experiment: Antibacterial activity against PiuA/PirA receptor-deficient Pseudomonas aeruginosa PAO1 in iron-chelated Muller-Hinton broth medium by broth microdilution method; format: functional
[22] = test system: Pseudomonas aeruginosa; experiment: Antibacterial activity against PiuA/FptA receptor-deficient Pseudomonas aeruginosa PAO1 in iron-chelated Muller-Hinton broth medium by broth microdilution method; format: functional
[23] = test system: Pseudomonas aeruginosa; experiment: Ratio of MIC for PiuA/PirA receptor-deficient Pseudomonas aeruginosa PAO1 to MIC for Pseudomonas aeruginosa PAO1 in iron-chelated Muller-Hinton broth medium by broth microdilution method; format: functional
[24] = test system: Pseudomonas aeruginosa; experiment: Antibacterial activity against Pseudomonas aeruginosa PAO1 in Muller-Hinton broth medium by broth microdilution method; format: functional
[25] = test system: Pseudomonas aeruginosa; experiment: Antibacterial activity against PiuA/FpvA receptor-deficient Pseudomonas aeruginosa PAO1 in iron-chelated Muller-Hinton broth medium by broth microdilution method; format: functional
[26] = Inhibition of PBP3 in Pseudomonas aeruginosa ATCC 27853 after 20 mins by fluorescence assay
[27] = test system: Acinetobacter baumannii; experiment: Antibacterial activity against Acinetobacter baumannii AB-3167 by broth microdilution method; format: functional
[28] = test system: Rattus norvegicus; experiment: Intrinsic clearance in Wistar Han rat at 1 mg/kg, iv by LC/MS/MS analysis; format: ADME, organism-based; set-up: dose 1 mg/kg, route intravenous; conditions: in vivo
[29] = Plasma clearance in Wistar Han rat at 1 mg/kg, iv by LC/MS/MS analysis; format: ADME, organism-based; set-up: dose 1 mg/kg, route intravenous
[30] = Fraction unbound in human plasma; format: ADME, cell-free
[31] = Fraction unbound in rat plasma; format: ADME, cell-free
[32] = Fraction unbound in mouse plasma; format: ADME, cell-free
[33] = test system: Acinetobacter sp.; experiment: Antibacterial activity against Acinetobacter spp. by broth microdilution method; format: functional
[34] = test system: Klebsiella pneumoniae; experiment: Antibacterial activity against Klebsiella pneumoniae expressing KPC by broth microdilution method; format: functional
[35] = test system: Escherichia coli; experiment: Antibacterial activity against Escherichia coli expressing ESBL by broth microdilution method; format: functional
[36] = test system: Escherichia coli; experiment: Antibacterial activity against Escherichia coli expressing defined beta-lactamase by broth microdilution method; format: functional
[37] = test system: Klebsiella pneumoniae; experiment: Antibacterial activity against Klebsiella pneumoniae expressing defined beta-lactamase by broth microdilution method; format: functional
[38] = test system: Pseudomonas aeruginosa; experiment: Antibacterial activity against Pseudomonas aeruginosa expressing metallo-beta-lactamase by broth microdilution method; format: functional
[39] = test system: Escherichia coli; experiment: Antibacterial activity against Escherichia coli expressing CTX-M by broth microdilution method; format: functional
[40] = test system: Pseudomonas aeruginosa; experiment: Antibacterial activity against Pseudomonas aeruginosa from cystic fibrosis patients by broth microdilution method; format: functional
[41] = test system: Klebsiella pneumoniae; experiment: Antibacterial activity against Klebsiella pneumoniae 1487-07 by broth microdilution method; format: functional
[42] = test system: Klebsiella pneumoniae; experiment: Antibacterial activity against Klebsiella pneumoniae expressing ESBL by broth microdilution method; format: functional

CC(C)(O/N=C(\C(=O)N[C@@H]1C(=O)N(S(=O)(=O)[O-])[C@@H]1CNC(=O)c1cc(-c2cc(=O)c(O)cn2O)no1)c1csc(N)n1)C(=O)[O-].[Na+].[Na+]
MIC [1]: 0.25 µg/mL | MIC [2]: 0.25 µg/mL | MIC [3]: 0.25 µg/mL | MIC [4]: 8 µg/mL | MIC [5]: 0.25 µg/mL | MIC [6]: 1 µg/mL | IC50 [7]: 110 nM | MIC [8]: 0.25 µg/mL | MIC [9]: 32 µg/mL | MIC [10]: 0.125 µg/mL | Ratio [11]: >=64 | IC50 [12]: 150 nM | Ratio [13]: 32 | MIC [14]: 0.25 µg/mL | MIC [15]: 8 µg/mL | MIC [16]: 1 µg/mL | MIC [17]: 0.125 µg/mL | MIC [18]: 0.25 µg/mL | MIC [19]: 8 µg/mL | IC50 [20]: > 300000 nM | MIC [21]: 16 µg/mL | MIC [22]: 1 µg/mL | Ratio [23]: >=64 | MIC [24]: 0.25 µg/mL | MIC [25]: 0.5 µg/mL | IC50 [26]: 6 nM | MIC [27]: 0.125 µg/mL

CC(C)(O/N=C(\C(=O)N[C@@H]1C(=O)N(S(=O)(=O)[O-])[C@@H]1CNC(=O)OCc1cc(=O)c(O)cn1O)c1csc(N)n1)C(=O)[O-].[Na+].[Na+]
CL [28]: 29 mL/min/kg | clearance [29]: 14.2 mL/min/kg | MIC [3]: 2 µg/mL | MIC [8]: 0.25 µg/mL | fraction unbound [30]: 0.51 | fraction unbound [31]: 0.61 | MIC [16]: 4 µg/mL | fraction unbound [32]: 0.72 | MIC [27]: 0.125 µg/mL

C[C@H]1[C@H](NC(=O)/C(=N\OC(C)(C)C(=O)O)c2csc(N)n2)C(=O)N1S(=O)(=O)O [AZTREONAM]
MIC [3]: 64 µg/mL (≈ 147 µM) | MIC50 [33]: 32 µg/mL (≈ 73.5 µM) | MIC90 [33]: > 64 µg/mL | MIC50 [34]: > 64 µg/mL | MIC90 [34]: > 64 µg/mL | IC50 [7]: 3340 nM | MIC50 [35]: 64 µg/mL (≈ 147 µM) | MIC90 [35]: > 64 µg/mL | MIC [8]: 4 µg/mL (≈ 9.19 µM) | MIC50 [36]: 4 µg/mL (≈ 9.19 µM) | MIC90 [36]: > 64 µg/mL | IC50 [12]: 2870 nM | MIC50 [37]: 64 µg/mL (≈ 147 µM) | MIC90 [37]: > 64 µg/mL | MIC [16]: > 64 µg/mL | IC50 [20]: > 300000 nM | MIC50 [38]: 8 µg/mL (≈ 18.4 µM) | MIC90 [38]: 16 µg/mL (≈ 36.7 µM) | MIC50 [39]: 64 µg/mL (≈ 147 µM) | MIC90 [39]: > 64 µg/mL | MIC50 [40]: 8 µg/mL (≈ 18.4 µM) | MIC90 [40]: 64 µg/mL (≈ 147 µM) | MIC [41]: > 64 µg/mL | MIC50 [42]: 32 µg/mL (≈ 73.5 µM) | MIC90 [42]: > 64 µg/mL | IC50 [26]: 8 nM | MIC [27]: 4 µg/mL (≈ 9.19 µM)
